US7365055B2, “Derivatives of morphine-6-glucuronide, pharmaceutical compositions containing them, their preparation method and their uses” (BTG International Limited, priority 2003, dated 2008)
Like-named read-outs stand apart in the source and are kept apart here.

Experiments:
opioid receptors = conditions: background statement; cited from earlier work
mouse = assay: tail flick test (analgesic effect); assay type: in vivo; conditions: mice, intravenous route
μ receptors = molecular target: T1, μ receptors (Rattus norvegicus, UniProt P33535); assay: affinity to the μ receptors, [3H]DAMGO binding, rat cerebral cortex membrane homogenates
T1 construct: homogenates of rat cerebral cortex membrane; from tissue; host or cells: rat cerebral cortex membrane homogenate
T1 sequence (P33535 whole entry): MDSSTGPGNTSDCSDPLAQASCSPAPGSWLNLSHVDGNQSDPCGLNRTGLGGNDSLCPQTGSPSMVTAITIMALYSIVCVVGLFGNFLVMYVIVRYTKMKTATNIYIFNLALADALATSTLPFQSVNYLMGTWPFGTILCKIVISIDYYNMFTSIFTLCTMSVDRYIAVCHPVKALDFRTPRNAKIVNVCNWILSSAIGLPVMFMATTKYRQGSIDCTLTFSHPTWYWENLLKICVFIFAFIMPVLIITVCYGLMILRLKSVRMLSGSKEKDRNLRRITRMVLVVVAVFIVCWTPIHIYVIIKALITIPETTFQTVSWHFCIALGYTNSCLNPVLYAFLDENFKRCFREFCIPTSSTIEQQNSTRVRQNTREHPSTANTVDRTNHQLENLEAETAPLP
Experimental: (§1) The affinity of M6G and of morphine was compared to that of the M6G derivatives according to the invention for the opioid receptors μ (mu) and κ (kappa).
(§2) The non-specific binding was determined by means of the addition to the labelled ligands of naloxone 10 μM.
(§3) After incubation, the samples were filtered on glass fibres (GF/B, Packard) previously incubated with 0.3% polyethyleneimine and rinsed several times with 50 mM of cold Tris-HCl using a “96-sample cell harvester” (Unifilter, Packard). The filters were then dried and the radioactivity counted.

κ receptors = molecular target: T2, κ receptors (Cavia porcellus, UniProt P41144); assay: affinity to the κ receptors, [3H]U 69593 binding, guinea-pig cerebellum membrane homogenates; conditions: 0.7 nM [3H]U 69593, 80 minutes at 22° C.
T2 construct: homogenates of guinea-pig cerebellum membrane; from tissue; host or cells: guinea-pig cerebellum membrane homogenate
T2 sequence (P41144 whole entry): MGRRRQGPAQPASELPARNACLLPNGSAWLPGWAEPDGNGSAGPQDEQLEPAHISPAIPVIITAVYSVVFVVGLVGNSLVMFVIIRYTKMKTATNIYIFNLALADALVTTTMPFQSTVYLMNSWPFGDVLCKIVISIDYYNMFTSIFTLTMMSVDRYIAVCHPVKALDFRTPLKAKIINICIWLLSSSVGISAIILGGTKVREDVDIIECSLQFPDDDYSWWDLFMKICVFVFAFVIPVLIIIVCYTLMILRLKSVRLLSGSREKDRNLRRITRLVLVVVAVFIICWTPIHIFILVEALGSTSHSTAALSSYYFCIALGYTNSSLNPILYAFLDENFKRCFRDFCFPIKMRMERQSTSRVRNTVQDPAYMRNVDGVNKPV
Experimental: as §1
Concentrations of M6G, morphine and the compound according to the invention of 10^−14 to 10^−6 M were used.
as §2, §3

[1] = Affinity to the K receptors (Ki)

CN1CC[C@]23c4c5ccc(O[C@@H]6O[C@H](C(=O)O)[C@@H](O)[C@H](O)[C@H]6O)c4O[C@H]2[C@@H](O)C=C[C@H]3[C@H]1C5 [Example M3G, morphine-3-glucuronide]
affinity for the opioid receptors (opioid receptors): no affinity

CN1CCC23c4c5ccc(O)c4OC2C(OC2OC(C(=O)O)C(O)C(O)C2O)C=CC3C1C5 (stereo not drawn) [Example M6G, morphine-6-glucuronide]
ED50, the dose which induces 50% of the analgesic effect (mouse): 0.55 mg eq./kg
duration of the action (analgesic activity) (mouse): approximately 100 minutes
Ki (μ receptors): 13.6 nM
affinity for the opioid receptors (opioid receptors): high affinity
Ki (κ receptors; [1]): 224 nM

CCN(CC)C(=O)C(CS)NC(=O)C1OC(OC2C=CC3C4Cc5ccc(O)c6c5C3(CCN4C)C2O6)C(O)C(O)C1O (stereo not drawn) [Example M6G-Cys-DEA, M6G-Cys-DEA]
Ki (μ receptors): 0.36 nM
Ki (κ receptors; [1]): 1.9 nM

CCOC(=O)C(CS)NC(=O)C1OC(OC2C=CC3C4Cc5ccc(O)c6c5C3(CCN4C)C2O6)C(O)C(O)C1O (stereo not drawn) [Example M6G-Cys-OEt, M6G-Cys-OEt]
Ki (μ receptors): 1.17 nM
Ki (κ receptors; [1]): 11.2 nM

COC(=O)C(CS)NC(=O)C1OC(OC2C=CC3C4Cc5ccc(O)c6c5C3(CCN4C)C2O6)C(O)C(O)C1O (stereo not drawn) [Example M6G-Cys-OMe, M6G-Cys-OMe]
Ki (μ receptors): 1.04 nM
Ki (κ receptors; [1]): 14 nM

CN1CC[C@]23c4c5ccc(O)c4O[C@H]2[C@@H](O[C@@H]2O[C@H](C(=O)NCCSSCCNC(=O)[C@H]4O[C@@H](O[C@H]6C=CC7[C@H]8Cc9ccc(O)c%10c9[C@@]7(CCN8C)[C@H]6O%10)[C@H](O)[C@@H](O)[C@@H]4O)[C@@H](O)[C@H](O)[C@H]2O)C=CC3[C@H]1C5 (stereo partly drawn) [M6G-Cya-Cya-M6G]
duration of the action (analgesic activity) (mouse): 360 min
Ki (μ receptors): 0.38 nM
Ki (κ receptors; [1]): 6.22 nM

CN1CC[C@]23c4c5ccc(O)c4O[C@H]2[C@@H](O[C@@H]2OC(C(=O)NCCS)[C@@H](O)C(O)C2O)C=CC3[C@H]1C5 (stereo partly drawn) [M6G-cysteamide]
Ki (μ receptors): 2.35 nM
Ki (κ receptors; [1]): 4.49 nM

CN1CC[C@]23c4c5ccc(O)c4O[C@H]2[C@@H](O)C=C[C@H]3[C@H]1C5 [Morphine]
ED50, the dose which induces 50% of the analgesic effect (mouse): 2.65 mg eq./kg
duration of the action (analgesic activity) (mouse): approximately 100 minutes

M6G-Cya-Cya-PEG20000 [M6G-Cya-Cya-PEG200000]
Ki (μ receptors; rat cerebral cortex membrane, 1 nM [3H]DAMGO, 60 minutes at 22° C., read-out: Affinity to the μ receptors (Ki)): 0.92 nM
Ki (κ receptors; read-out: Affinity to the K receptors (Ki)): 0.72 nM
